# What was measured:
# A549 = assay: SRB cytotoxicity assay, A549; assay type: cell-based
# Description: (§1) Eight different cancer cell lines were acquired from the Radiobiology and Experimental Radio Oncology lab, University Medical Center, Hamburg University, Hamburg, Germany. MCF7, MDA-MB-231 (breast cancer), and A549 (lung cancer) cells were maintained in RPMI medium while HCT116 (colon cancer), HepG2 (liver cancer), U87, U373 (glioblastoma), and HeLa (cervical cancer) were maintained in DMEM supplemented with 10% FBS and 1% penicillin/streptomycin (Sigma Aldrich, Missouri, USA). Normal human fibroblast (F180) cells were maintained in DMEM supplemented with 15% FBS. Normal human mammary epithelial cell line (HME1) were maintained in DMEM/F-12 medium supplemented with 10% FBS. All incubations were done at 37° C. in a humidified atmosphere of 5% CO2. All cell lines were authenticated by short tandem repeat (STR) profiling. The CDK4 knockout cells (provided by Dr. Samrein Ahmed, University of Sharjah, United Arab Emirates) were generated by CRISPR-CAS9 technology and were maintained in DMEM supplemented with 10% FBS.
# (§2) The cytotoxic effects of HH32 and HH33 compounds were evaluated at various concentrations ranging from 0.0001 to 100 μM by sulphrhodamine-B (SRB) assay as described previously. The anti-proliferative activity was expressed as growth inhibitory concentration (IC50) values, which were calculated by the sigmoidal dose-response curve fitting method using Graph pad prism 6 software (GraphPad Software, San Diego, CA, USA).
# HCT-116 = assay: SRB cytotoxicity assay, HCT-116; assay type: cell-based
# Description: as §1, §2
# MCF7 = assay: SRB cytotoxicity assay, MCF7; assay type: cell-based
# Description: as §1, §2
# HepG2 = assay: SRB cytotoxicity assay, HepG2; assay type: cell-based
# Description: as §1, §2
# HeLa = assay: SRB cytotoxicity assay, HeLa; assay type: cell-based
# Description: as §1, §2
# HME1 = assay: SRB cytotoxicity assay, normal mammary epithelial HME1; assay type: cell-based, human; conditions: mean ± SEM
# Description: as §1, with “The CDK4 knockout cells (provided by Dr. Samrein Ahmed, University of Sharjah, United Arab Emirates) were generated by CRISPR-CAS9 technology and were maintained in DMEM supplemented with 10% FBS.” left out
# as §2
# MDA-MB-231 = assay: SRB cytotoxicity assay, MDA-MB-231; assay type: cell-based
# Description: as §1, §2
# U373 = assay: SRB cytotoxicity assay, U373; assay type: cell-based
# Description: as §1, §2
# U87 = assay: SRB cytotoxicity assay, U87; assay type: cell-based
# Description: as §1, §2
# F-180 = assay: SRB cytotoxicity assay, normal fibroblast F-180; assay type: cell-based, human; conditions: F-180 normal fibroblast, mean ± SEM
# Description: as §1, §2
smiles,measurement,setting,value
"COc1cccc2c1C(=O)c1c(O)c3c(c(O)c1C2=O)C[C@@](O)(C(=O)CO)C[C@@H]3O[C@H]1C[C@H](N)[C@H](O)[C@H](C)O1 [DOX, Doxorubicin, reference compound]",Selectivity index,A549; F180 versus A549,0.47
same,Selectivity index,A549; HME1 versus A549,1.81
same,IC50,"A549; Homo sapiens, A549, SRB, mean ± SEM",0.62 ± 0.59 µM
same,Selectivity index,HCT-116; F180 versus HCT116,2.6
same,Selectivity index,HCT-116; HME1 versus HCT116,10.2
same,IC50,"HCT-116; Homo sapiens, HCT-116, SRB, mean ± SEM",0.11 µM
same,Selectivity index,MCF7; F180 versus MCF7,4.8
same,Selectivity index,MCF7; HME1 versus MCF7,18.7
same,IC50,"MCF7; Homo sapiens, MCF7, SRB, mean ± SEM",0.06 µM
same,Selectivity index,HepG2; F180 versus HepG2,0.78
same,Selectivity index,HepG2; HME1 versus HepG2,3.02
same,IC50,"HepG2; Homo sapiens, HepG2, SRB, mean ± SEM",0.37 ± 0.12 µM
same,Selectivity index,HeLa; F180 versus HeLa,0.6
same,Selectivity index,HeLa; HME1 versus HeLa,2.4
same,IC50,"HeLa; Homo sapiens, HeLa, SRB, mean ± SEM",0.46 ± 0.46 µM
same,IC50,HME1; HME1 normal epithelial,1.12 ± 0.19 µM
same,IC50,"HME1; Homo sapiens, HME1, HME1 normal epithelial",< 1.2 µM
same,Selectivity index,MDA-MB-231; F180 versus MDA-MB-231,0.64
same,Selectivity index,MDA-MB-231; HME1 versus MDA-MB-231,2.5
same,IC50,"MDA-MB-231; Homo sapiens, MDA-MB-231, SRB, mean ± SEM",0.45 ± 0.11 µM
same,Selectivity index,U373; F180 versus U373,0.33
same,Selectivity index,U373; HME1 versus U373,1.3
same,IC50,"U373; Homo sapiens, U373 MG, U373, SRB, mean ± SEM",0.88 ± 0.09 µM
same,Selectivity index,U87; F180 versus U87,2.9
same,Selectivity index,U87; HME1 versus U87,11.2
same,IC50,"U87; Homo sapiens, U-87 MG, U87, SRB, mean ± SEM",0.1 ± 0.09 µM
same,IC50,F-180,0.29 ± 0.37 µM
same,IC50,F-180; listed as doxorubicin,< 1.2 µM

# — US20250002467A1, “DESIGN, SYNTHESIS AND MECHANISMS OF ANTICANCER ACTIVITY OF NEW ACETYLATED 5-AMINOSALICYLATE-THIAZOLINONE HYBRID DERIVATIVES” (University of Sharjah, priority 2023, published 2025)
